Key:
[1] = test system: MT4; assay: Antiviral activity against the cytopathic effects of HIV IIIB in MT-4 cells was assayed in the presence of 50% human serum; format: functional, cell-based
[2] = test system: MT4; assay: Cytotoxicity against MT-4 cells; format: functional, cell-based; conditions: Homo sapiens
[3] = target: Human immunodeficiency virus type 1 protease (Human immunodeficiency virus 1) (UniProt Q72874); assay: Compound was tested for its inhibitory potency against HIV protease at 0.5 nM

inhibition [3] [%]	SMILES	EC50 [1] [µM]	IC50 [2] [µM]
64	Cc1cccc(C)c1OCC(=O)N[C@@H](Cc1ccccc1)[C@@H](O)C[C@H](CC(C)C)NC(=O)[C@H](C(C)C)N1CCCNC1=O	0.32	34.4
87	CCCC[C@@H](C[C@H](O)[C@H](Cc1ccccc1)NC(=O)COc1c(C)cccc1C)NC(=O)[C@H](C(C)C)N1CCCNC1=O	0.92	32.9
97	Cc1cccc(C)c1OCC(=O)N[C@@H](Cc1ccccc1)[C@@H](O)C[C@H](CCC(C)C)NC(=O)[C@H](C(C)C)N1CCCNC1=O	0.34	18.7
87	CCC(CC)C[C@@H](C[C@H](O)[C@H](Cc1ccccc1)NC(=O)COc1c(C)cccc1C)NC(=O)[C@H](C(C)C)N1CCCNC1=O	2.8	17.8
93	Cc1cccc(C)c1OCC(=O)N[C@@H](Cc1ccccc1)[C@@H](O)C[C@@H](NC(=O)[C@H](C(C)C)N1CCCNC1=O)C(C)C	0.26	56.2

SMILES	inhibition [3] [%]	EC50 [1] [µM]	IC50 [2] [µM]
Cc1cccc(C)c1OCC(=O)N[C@@H](Cc1ccccc1)[C@@H](O)C[C@H](Cc1ccccc1)NC(=O)[C@H](C(C)C)N1CCCNC1=O [LOPINAVIR]	93	0.1	17.8
